This is an account of results in patent publication US20260070902A1, “SULFONYL DERIVATIVES AS CCR6 INHIBITORS” (Hoffmann-La Roche Inc., priority 2022, published 2026).

Test [1] concerns the target T1, human CCR6 (Homo sapiens, UniProt P51684).
T1 sequence (P51684 1-374): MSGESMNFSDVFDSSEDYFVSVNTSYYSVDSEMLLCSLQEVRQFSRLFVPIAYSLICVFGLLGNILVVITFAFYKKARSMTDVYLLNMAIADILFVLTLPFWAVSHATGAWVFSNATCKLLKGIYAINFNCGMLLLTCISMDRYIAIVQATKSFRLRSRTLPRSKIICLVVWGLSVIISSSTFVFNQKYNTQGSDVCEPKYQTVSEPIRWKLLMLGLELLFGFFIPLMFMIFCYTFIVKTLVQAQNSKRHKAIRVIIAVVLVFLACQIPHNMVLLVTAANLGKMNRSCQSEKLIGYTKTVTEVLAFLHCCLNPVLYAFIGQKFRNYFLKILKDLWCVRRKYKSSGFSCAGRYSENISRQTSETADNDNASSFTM
Briefly: CHO-K1 CCR6 chemotaxis assay towards CCL20. The settings on record: relative -Log IC50; CHO-K1 cells overexpressing human CCR6; migration towards 100 ng/ml CCL20; 4 h. It is filed as cell-based. The method, boiled down:
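Human CCR6-overexpressing CHO-K1 cells (2*10^6 cells/ml) were preincubated 30 min at 37 °C with compound (0.2% DMSO), then allowed to migrate 4 h through 8 µm Transwell pores toward 100 ng/ml CCL20. Migrated cells were counted by CellTiter Glo. −Log IC50 came from four-parameter fits normalised to DMSO without/with CCL20.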

The target in test [2] is T1, human CCR6. Description: Human CCR6-CRE reporter assay. Details: The second construct contained the open reading frame of human CCR6 in the pUNO1 backbone; host or cells: 293FT cells. It is filed as cell-based. The settings on record: relative -Log IC50; 293FT cells transfected with human CCR6 and CRE-luciferase reporter; 6 μM Forskolin, 6 nM CCL20; 5 h. The method, boiled down: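 293FT cells transiently co-transfected with human CCR6 and a CRE-luc2P reporter, used 48 h later. Compounds incubated with cells in medium containing 6 μM Forskolin and 6 nM CCL20 (assay-medium levels), 0.1% DMSO final, 5 h at 37° C; luminescence read, relative −Log IC50 from four-parameter fit.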
On the technique in general: Reporter assays use an easily measured gene product as a stand-in for the process of interest.

`NC(=O)c1cc(-c2ccc(S(=O)(=O)[C@H]3CC[C@H](Nc4ccc(S(F)(F)(F)(F)F)cc4)CC3)cc2)cn2ccnc12` [Example 157, 6-(4-{[trans-4-{[4-(pentafluoro-λ^6-sulfanyl)phenyl]amino}cyclohexyl]sulfonyl}phenyl)imidazo[1,2-a]pyridine-8-carboxamide]: the figures for the IC50 in test [1] and in test [2] were 2.51 nM and 79.4 nM, respectively.

Take `CN(C)C(=O)c1cccc(-c2ccc(S(=O)(=O)[C@H]3CC[C@H](Nc4ccc(S(F)(F)(F)(F)F)cc4)CC3)cc2)c1` [Example 19, N,N-dimethyl-4′-{[trans-4-{[4-(pentafluoro-λ^6-sulfanyl)phenyl]Amino}cyclohexyl]sulfonyl}-[1,1′-biphenyl]-3-carboxamide]: the IC50 – broadly, the point on the concentration scale where inhibition reaches its midpoint – is 398 nM in test [1] and 63.1 nM in test [2].

Take `N=S(=O)(c1ccc(-c2ccc3c(c2)CC(=O)N3)cc1)N1CCC(Nc2ccc(S(F)(F)(F)(F)F)cc2)CC1` (stereo not shown) [Example 123, 5-{4-[(4-{[4-(pentafluoro-λ^6-sulfanyl)phenyl]Amino}piperidin-1-yl)sulfonimidoyl]phenyl}-2,3-dihydro-1H-indol-2-one]: the IC50 was 200 nM in test [1] and 251 nM in test [2].

As for `CNC(=O)c1ccc(-c2ccc(S(=O)(=O)N3CCC(Nc4ccc(S(F)(F)(F)(F)F)cc4)CC3)cc2)cc1F` [Example 139, 3-fluoro-N-methyl-4′-[(4-{[4-(pentafluoro-λ^6-sulfanyl)phenyl]amino}piperidin-1-yl)sulfonyl]-[1,1′-biphenyl]-4-carboxamide], the IC50 in test [1] was 10 nM; in test [2] it was 63.1 nM.

On to `CC(C)c1cnc2ccc(-c3ccc(S(=N)(=O)[C@H]4CC[C@H](Nc5ccc(S(F)(F)(F)(F)F)cc5)CC4)cc3)cn12` (relative stereo) [Example 118, {4-[3-(propan-2-yl)imidazo[1,2-a]pyridin-6-yl]phenyl}[trans-4-{[4-(pentafluoro-λ^6-sulfanyl)phenyl]Amino}cyclohexyl](imino)-λ^6-sulfanone], for which the results for the IC50 in test [1] and in test [2] were 398 nM and 79.4 nM, respectively.

For the compound `O=S(=O)(c1ccc(-c2cn3ccnc3cn2)cc1)N1CCC(Nc2ccc(S(F)(F)(F)(F)F)cc2)CC1` [Example 24, 1-(4-{imidazo[1,2-a]pyrazin-6-yl}benzenesulfonyl)-N-[4-(pentafluoro-λ^6-sulfanyl)phenyl]piperidin-4-amine], the figures for the IC50 in test [1] and in test [2] were 501 nM and 200 nM, respectively.

As to `CNC(=O)c1ccc(-c2ccc(S(=O)(=O)[C@H]3CC[C@H](Nc4ccc(S(F)(F)(F)(F)F)cc4)CC3)cc2)cc1` [Example 16, N-methyl-4′-{[trans-4-{[4-(pentafluoro-λ^6-sulfanyl)phenyl]Amino}cyclohexyl]sulfonyl}-[1,1′-biphenyl]-4-carboxamide], the IC50 was 12.6 nM in test [1] and 63.1 nM in test [2].

Regarding `O=S(=O)(c1ccc(-c2ccc3nnc(C4CNC4)n3c2)cc1)N1CCC(Nc2ccc(S(F)(F)(F)(F)F)cc2)CC1` [Example 167, 1-{4-[3-(azetidin-3-yl)-[1,2,4]triazolo[4,3-a]pyridin-6-yl]benzenesulfonyl}-N-[4-(pentafluoro-λ^6-sulfanyl)phenyl]piperidin-4-amine], the IC50 in test [1] and in test [2] was 251 nM each time.

`CNC(=O)c1ccc(-c2ccc(S(=O)(=O)[C@H]3CC[C@H](Nc4ccc(S(F)(F)(F)(F)F)cc4)CC3)cc2)nc1` [Example 47, N-methyl-6-(4-{[trans-4-{[4-(pentafluoro-λ^6-sulfanyl)phenyl]Amino}cyclohexyl]sulfonyl}phenyl)pyridine-3-carboxamide]: the IC50 in test [1] is 794 nM; in test [2], 63.1 nM.

For the compound `O=S(=O)(c1ccc(-c2ccc3nccn3c2)cc1F)N1CCC(Nc2ccc(S(F)(F)(F)(F)F)cc2)CC1` [Example 74, 1-(2-fluoro-4-{imidazo[1,2-a]pyridin-6-yl}benzenesulfonyl)-N-[4-(pentafluoro-λ^6-sulfanyl)phenyl]piperidin-4-amine], the IC50 in test [1] is 794 nM; in test [2] it was 501 nM.

As for `NC(=O)c1ccc(-c2ccc(S(=O)(=O)[C@H]3CC[C@H](Nc4ccc(S(F)(F)(F)(F)F)cc4)CC3)cc2)nc1` [Example 49, 6-(4-{[trans-4-{[4-(pentafluoro-λ^6-sulfanyl)phenyl]Amino}cyclohexyl]sulfonyl}phenyl)pyridine-3-carboxamide], the IC50 is 501 nM in test [1] and 79.4 nM in test [2].

On to `O=S(=O)(c1ccc(-c2cc3cn[nH]c3cn2)cc1)[C@H]1CC[C@H](Nc2ccc(S(F)(F)(F)(F)F)cc2)CC1` [Example 147, 4-(pentafluoro-λ^6-sulfanyl)-N-[trans-4-(4-{1H-pyrazolo[3,4-c]pyridin-5-yl}benzenesulfonyl)cyclohexyl]aniline], for which the IC50 in test [1] was 39.8 nM; in test [2], 200 nM.

Consider `O=S(=O)(c1ccc(-c2ccc3nccn3c2)cc1)N1CCC(Nc2ccc(S(F)(F)(F)(F)F)cc2)CC1` [Example 1, 1-(4-{imidazo[1,2-a]pyridin-6-yl}benzenesulfonyl)-N-[4-(pentafluoro-λ^6-sulfanyl)phenyl]piperidin-4-amine], for which the IC50 in test [1] is 79.4 nM; in test [2] it was 126 nM.

For the compound `CC(C)c1cnc2ccc(-c3ccc(S(=O)(=O)N4CCC(Nc5ccc(S(F)(F)(F)(F)F)cc5)CC4)cc3)cn12` [Example 29, N-[4-(pentafluoro-λ^6-sulfanyl)phenyl]-1-{4-[3-(propan-2-yl)imidazo[1,2-a]pyridin-6-yl]benzenesulfonyl}piperidin-4-amine], the results for the concentration for half-maximal inhibition (IC50) in test [1] and in test [2] were 50.1 nM and 39.8 nM, respectively.

`N=S(=O)(c1ccc(-c2ccc3nccn3c2)cc1)[C@H]1CC[C@H](Nc2ccc(S(F)(F)(F)(F)F)cc2)CC1` (single isomer, unassigned; (-)) [Example 129, (−)-(4-{imidazo[1,2-a]pyridin-6-yl}phenyl)[trans-4-{[4-(pentafluoro-λ^6-sulfanyl)phenyl]Amino}cyclohexyl](imino)-λ^6-sulfanone]: the IC50 was 316 nM in test [1] and 200 nM in test [2].

For `CNC(=O)c1ccc(-c2ccc(S(=N)(=O)[C@H]3CC[C@H](Nc4ccc(S(F)(F)(F)(F)F)cc4)CC3)cc2)cc1` (stereo partly drawn) [Example 95, N-methyl-4′-{[trans-4-{[4-(pentafluoro-λ^6-sulfanyl)phenyl]Amino}cyclohexyl]sulfonimidoyl}-[1,1′-biphenyl]-4-carboxamide], the IC50 in test [1] is 501 nM; in test [2], 251 nM.

Consider `NC(=O)c1cc(-c2ccc(S(=O)(=O)N3CC[C@H](Nc4ccc(S(F)(F)(F)(F)F)cc4)[C@@H](F)C3)cc2)ccn1` (stereo in doubt) [Example 83, 4-(4-{[(3S,4S)-3-fluoro-4-{[4-(pentafluoro-λ^6-sulfanyl)phenyl]Amino}piperidin-1-yl]sulfonyl}phenyl)pyridine-2-carboxamide], for which the IC50 in test [1] is 50.1 nM; in test [2] it was 316 nM.
